Test results published in ChEMBL document CHEMBL5291721, “A preclinical secondary pharmacology resource illuminates target-adverse drug reaction associations of marketed drugs” (Nat Commun, 2023).

target: T1, Adenosine receptor A1 (Homo sapiens, UniProt P30542)
T1 sequence (P30542 whole entry): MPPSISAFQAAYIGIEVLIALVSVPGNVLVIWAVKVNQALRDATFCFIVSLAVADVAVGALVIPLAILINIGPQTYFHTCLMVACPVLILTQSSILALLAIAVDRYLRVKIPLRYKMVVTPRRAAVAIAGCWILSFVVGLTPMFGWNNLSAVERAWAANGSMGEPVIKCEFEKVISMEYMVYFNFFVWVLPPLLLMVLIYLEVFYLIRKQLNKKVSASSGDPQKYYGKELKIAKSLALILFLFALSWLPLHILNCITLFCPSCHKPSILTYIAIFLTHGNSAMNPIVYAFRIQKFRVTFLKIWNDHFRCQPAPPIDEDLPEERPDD
Further: assay procedure not described here.

For `CSCC[C@H](N)C(=O)O` [METHIONINE], which AC50 is on record?
The AC50 was greater than 30 µM.

For `COCC(=O)O[C@]1(CCN(C)CCCc2nc3ccccc3[nH]2)CCc2cc(F)ccc2[C@@H]1C(C)C` [MIBEFRADIL], which AC50 is on record?
The AC50 was greater than 30 µM.

For `CC1(C)C[C@@H]1C(=O)N/C(=C\CCCCSC[C@H](N)C(=O)O)C(=O)O` [CILASTATIN], which AC50 is on record?
Its AC50 is greater than 30 µM.

With `CC1=C(/C=C/C(C)=C\C=C\C(C)=C\C(=O)O)C(C)(C)CCC1` [ALITRETINOIN] as the molecule, how does the AC50 read?
The AC50 was greater than 30 µM.

For `C[C@@H](O)[C@H]1C(=O)N2C(C(=O)O)=C(S[C@@H]3CN[C@H](C(=O)Nc4cccc(C(=O)O)c4)C3)[C@H](C)[C@H]12`, which AC50 is on record?
The AC50 was greater than 30 µM.

How did the AC50 turn out when `CC1(C)S[C@@H]2[C@H](NC(=O)[C@H](NC(=O)c3cnc4cccnc4c3O)c3ccccc3)C(=O)N2[C@H]1C(=O)O` [APALCILLIN] was run?
Its AC50 is greater than 30 µM.

With `COc1c(OCCCN2CCOCC2)ccc2c1N=C(NC(=O)c1cnc(N)nc1)N1CCN=C21` [COPANLISIB] as the molecule, how does the AC50 read?
Its AC50 is greater than 30 µM.

With `O=C1Nc2ccccc2C1(c1ccc(O)cc1)c1ccc(O)cc1` [OXYPHENISATINE] as the molecule, how does the AC50 read?
Its AC50 is greater than 30 µM.

With `CC1=C(/C=C/C(C)=C/C=C/C(C)=C\C(=O)O)C(C)(C)CCC1` [ISOTRETINOIN] as the molecule, how does the AC50 read?
Its AC50 is greater than 30 µM.

For `O=C(OOC(=O)c1ccccc1)c1ccccc1` [BENZOYL PEROXIDE], which AC50 is on record?
Its AC50 is greater than 30 µM.

Which AC50 does the source give for `CC(=O)Nc1ccc(/C=N/NC(N)=S)cc1` [AMITHIOZONE] here?
The AC50 was greater than 30 µM.

`CC(=O)O[C@]1(C(C)=O)CC[C@H]2[C@@H]3CCC4=CC(=O)CCC4=C3[C@@H](c3ccc(N(C)C)cc3)C[C@@]21C` [ULIPRISTAL ACETATE] was tested. Which AC50 did it give?
Its AC50 is greater than 30 µM.

With `OC(CN1CCCCC1)c1cc(-c2ccccc2)on1` (centres undefined) [PERISOXAL] as the molecule, how does the AC50 read?
The AC50 was greater than 30 µM.

Which AC50 does the source give for `CC(=O)OC1CN2CCC1CC2` (centres undefined) [ACECLIDINE] here?
The AC50 was greater than 30 µM.
